Assays:
barnyardgrass [1] = experiment: Test C preemergence; assay type: in vivo, Echinochloa crusgalli; settings: 0 to 100 scale (0 no effect, 100 complete control); for Plant response rating, Barnyardgrass: Preemergence, 500 g ai/ha, visual rating after 10 days; for Barnyardgrass plant response rating: Test C, preemergence, 125 g ai/ha
Outline: (§1)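 Soil-applied (pre) and foliar (post, 1–2 leaf, 2–10 cm) sprays; surfactant-containing non-phytotoxic solvent vehicle; loam/sand substrate. Readout: visual % control at 10 d, greenhouse, versus untreated.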

blackgrass [2] = experiment: Test C preemergence; assay type: in vivo, Alopecurus myosuroides; settings: 0 to 100 scale (0 no effect, 100 complete control); for Plant response rating, Blackgrass: Preemergence, 500 g ai/ha, visual rating after 10 days; for Blackgrass plant response rating: Test C, preemergence, 125 g ai/ha
Outline: as §1

corn [3] = experiment: Test C preemergence; assay type: in vivo, Zea mays; settings: 0 to 100 scale (0 no effect, 100 complete control); for Plant response rating, Corn: Preemergence, 500 g ai/ha, visual rating after 10 days; for Corn plant response rating: Test C, preemergence, 125 g ai/ha
Outline: as §1

green foxtail = experiment: Test C preemergence; assay type: in vivo, Setaria viridis; settings: 0 to 100 scale (0 no effect, 100 complete control); for Plant response rating, Foxtail, Green: Preemergence, 500 g ai/ha, visual rating after 10 days; for Foxtail, Green plant response rating: Test C, preemergence, 125 g ai/ha
Outline: as §1

kochia [4] = experiment: Test C preemergence; assay type: in vivo, Bassia scoparia; settings: 0 to 100 scale (0 no effect, 100 complete control); for Plant response rating, Kochia: Preemergence, 500 g ai/ha, visual rating after 10 days; for Kochia plant response rating: Test C, preemergence, 125 g ai/ha
Outline: as §1

oat, wild [5] = experiment: Test C preemergence; assay type: in vivo, Avena fatua; settings: 0 to 100 scale (0 no effect, 100 complete control); for Plant response rating, Oat, Wild: Preemergence, 500 g ai/ha, visual rating after 10 days; for Oat, Wild plant response rating: Test C, preemergence, 125 g ai/ha
Outline: as §1

pigweed, palmer [6] = experiment: Test C preemergence; assay type: in vivo, Amaranthus palmeri; settings: 0 to 100 scale (0 no effect, 100 complete control); for Plant response rating, Pigweed, Palmer: Preemergence, 500 g ai/ha, visual rating after 10 days; for Pigweed, Palmer plant response rating: Test C, preemergence, 125 g ai/ha
Outline: as §1

ragweed [7] = experiment: Test C preemergence; assay type: in vivo, Ambrosia artemisiifolia; settings: 0 to 100 scale (0 no effect, 100 complete control); for Plant response rating, Ragweed: Preemergence, 500 g ai/ha, visual rating after 10 days; for Ragweed plant response rating: Test C, preemergence, 125 g ai/ha
Outline: as §1

ryegrass, Italian [8] = experiment: Test C preemergence; assay type: in vivo, Lolium multiflorum; settings: 0 to 100 scale (0 no effect, 100 complete control); for Plant response rating, Ryegrass, Italian: Preemergence, 500 g ai/ha, visual rating after 10 days; for Ryegrass, Italian plant response rating: Test C, preemergence, 125 g ai/ha
Outline: as §1

soybean [9] = experiment: Test C preemergence; assay type: in vivo, Glycine max; settings: 0 to 100 scale (0 no effect, 100 complete control); for Plant response rating, Soybean: Preemergence, 500 g ai/ha, visual rating after 10 days; for Soybean plant response rating: Test C, preemergence, 125 g ai/ha
Outline: as §1

wheat [10] = experiment: Test C preemergence; assay type: in vivo, Triticum aestivum; settings: 0 to 100 scale (0 no effect, 100 complete control); for Plant response rating, Wheat: Preemergence, 500 g ai/ha, visual rating after 10 days; for Wheat plant response rating: Test C, preemergence, 125 g ai/ha
Outline: as §1

barnyardgrass [11] = experiment: Test C postemergence; assay type: in vivo, Echinochloa crusgalli; settings: 10 days
Outline: as §1

blackgrass [12] = experiment: Test C postemergence; assay type: in vivo, Alopecurus myosuroides; settings: 10 days
Outline: as §1

corn [13] = experiment: Test C postemergence; assay type: in vivo, Zea mays; settings: 10 days
Outline: as §1

kochia [14] = experiment: Test C postemergence; assay type: in vivo, Bassia scoparia; settings: 10 days
Outline: as §1

oat, wild [15] = experiment: Test C postemergence; assay type: in vivo, Avena fatua; settings: 10 days
Outline: as §1

pigweed, palmer [16] = experiment: Test C postemergence; assay type: in vivo, Amaranthus palmeri; settings: 10 days
Outline: as §1

ragweed [17] = experiment: Test C postemergence; assay type: in vivo, Ambrosia artemisiifolia; settings: 10 days
Outline: as §1

ryegrass, Italian [18] = experiment: Test C postemergence; assay type: in vivo, Lolium multiflorum; settings: 10 days
Outline: as §1

soybean [19] = experiment: Test C postemergence; assay type: in vivo, Glycine max; settings: 10 days
Outline: as §1

wheat [20] = experiment: Test C postemergence; assay type: in vivo, Triticum aestivum; settings: 10 days
Outline: as §1

galium = experiment: Test C postemergence; assay type: in vivo, Galium aparine; settings: 10 days
Outline: as §1

horseweed = experiment: Test C postemergence; assay type: in vivo, Erigeron canadensis; settings: 10 days
Outline: as §1

barnyardgrass [21] = experiment: Test D flooded paddy test; assay type: in vivo, Echinochloa crus-galli; settings: 250 g ai/ha, applied to paddy water, visual rating after 13 to 14 days, scale 0 to 100 (0 no effect, 100 complete control)
Procedure: (§2) Plant species in the flooded paddy test selected from barnyardgrass (Echinochloa crus-galli), ducksalad (Heteranthera limosa), rice (Oryza sativa), and sedge, umbrella (small-flower umbrella sedge, Cyperus difformis) were grown to the 2-leaf stage for testing. At time of treatment, test pots were flooded to 3 cm above the soil surface, treated by application of test compounds directly to the paddy water, and then maintained at that water depth for the duration of the test. Treated plants and controls were maintained in a greenhouse for 13 to 14 days, after which time all species were compared to controls and visually evaluated. Plant response ratings, summarized in Table D, are based on a scale of 0 to 100 where 0 is no effect and 100 is complete control. A dash (-) response means no test result.

ducksalad = experiment: Test D flooded paddy test; assay type: in vivo, Heteranthera limosa; settings: 250 g ai/ha, applied to paddy water, visual rating after 13 to 14 days, scale 0 to 100 (0 no effect, 100 complete control)
Procedure: as §2

rice = experiment: Test D flooded paddy test; assay type: in vivo, Oryza sativa; settings: 250 g ai/ha, applied to paddy water, visual rating after 13 to 14 days, scale 0 to 100 (0 no effect, 100 complete control)
Procedure: as §2

sedge, umbrella = experiment: Test D flooded paddy test; assay type: in vivo, Cyperus difformis; settings: 250 g ai/ha, applied to paddy water, visual rating after 13 to 14 days, scale 0 to 100 (0 no effect, 100 complete control)
Procedure: as §2

[22] = 125 g ai/ha, postemergence, 0 to 100 scale, 0 no effect, 100 complete control
[23] = Postemergence, 500 g ai/ha, visual 0 to 100 scale (0 no effect, 100 complete control)

COC[C@H]1CN(C(=O)c2cc(-n3cnc(C4CC4)n3)ccc2OC)c2cccc(Cl)c2O1 [Compound 235]
0: Plant response rating, Corn (corn [3])
80: Plant response rating, Blackgrass (blackgrass [2]) | Kochia plant response rating (kochia [4]) | Plant response rating, Oat, Wild (oat, wild [5]) | Ryegrass, Italian plant response rating (ryegrass, Italian [8]) | Plant response rating, Ragweed (ragweed [17]; [23])
60: Plant response rating, Ragweed (ragweed [7]) | Soybean plant response rating (soybean [9]) | Plant response rating, Oat, Wild (oat, wild [15]; [23])
40: Plant response rating, Oat, Wild (oat, wild [15]; [22])
70: Plant response rating, Soybean (soybean [9]) | Plant response rating, Blackgrass (blackgrass [12]; [22]) | Plant response rating, Pigweed, Palmer (pigweed, palmer [16]; [22]) | Plant response rating, Ragweed (ragweed [17]; [22]) | Plant response rating, Ryegrass, Italian (ryegrass, Italian [18]; [22]) | Plant response rating, Horseweed (horseweed; [23])
30: Ragweed plant response rating (ragweed [7]) | Plant response rating, Wheat (wheat [10]) | Wheat plant response rating (wheat [10]) | Plant response rating, Wheat (wheat [20]; [22]) | Plant response rating, Wheat (wheat [20]; [23]) | Plant response rating, Horseweed (horseweed; [22])
100: Plant response rating, Foxtail, Green (green foxtail) | Foxtail, Green plant response rating (green foxtail) | Plant response rating, Pigweed, Palmer (pigweed, palmer [6]) | Plant response rating, Ryegrass, Italian (ryegrass, Italian [18]; [23]) | Plant response rating, Soybean (soybean [19]; [22]) | Plant response rating, Soybean (soybean [19]; [23]) | Plant response rating, Galium (galium; [22]) | Plant response rating, Galium (galium; [23])
50: Barnyardgrass plant response rating (barnyardgrass [1]) | Blackgrass plant response rating (blackgrass [2]) | Plant response rating, Corn (corn [13]; [22])
15: Plant response rating, Rice (Flood) (rice)
10: Plant response rating, Barnyardgrass (Flood) (barnyardgrass [21])
20: Corn plant response rating (corn [3]) | Oat, Wild plant response rating (oat, wild [5])
90: Plant response rating, Barnyardgrass (barnyardgrass [1]) | Plant response rating, Kochia (kochia [4]) | Pigweed, Palmer plant response rating (pigweed, palmer [6]) | Plant response rating, Ryegrass, Italian (ryegrass, Italian [8]) | Plant response rating, Barnyardgrass (barnyardgrass [11]; [22]) | Plant response rating, Barnyardgrass (barnyardgrass [11]; [23]) | Plant response rating, Blackgrass (blackgrass [12]; [23]) | Plant response rating, Corn (corn [13]; [23]) | Plant response rating, Kochia (kochia [14]; [22]) | Plant response rating, Kochia (kochia [14]; [23]) | Plant response rating, Pigweed, Palmer (pigweed, palmer [16]; [23]) | Plant response rating, Ducksalad (Flood) (ducksalad) | Plant response rating, Sedge, Umbrella (Flood) (sedge, umbrella)

COc1ccc(-n2cnc(C(C)(C)O)n2)cc1C(=O)N1C[C@H](C)Oc2c(Cl)cccc21 [Compound 254]
100: Plant response rating, Barnyardgrass (barnyardgrass [1]) | Plant response rating, Foxtail, Green (green foxtail) | Foxtail, Green plant response rating (green foxtail) | Plant response rating, Pigweed, Palmer (pigweed, palmer [6]) | Pigweed, Palmer plant response rating (pigweed, palmer [6]) | Plant response rating, Soybean (soybean [9]) | Soybean plant response rating (soybean [9]) | Plant response rating, Pigweed, Palmer (pigweed, palmer [16]; [23]) | Plant response rating, Ragweed (ragweed [17]; [23]) | Plant response rating, Soybean (soybean [19]; [22]) | Plant response rating, Soybean (soybean [19]; [23]) | Plant response rating, Galium (galium; [22]) | Plant response rating, Galium (galium; [23])
30: Plant response rating, Horseweed (horseweed; [22])
98: Plant response rating, Ducksalad (Flood) (ducksalad) | Plant response rating, Sedge, Umbrella (Flood) (sedge, umbrella)
50: Plant response rating, Corn (corn [3]) | Corn plant response rating (corn [3]) | Plant response rating, Barnyardgrass (barnyardgrass [11]; [22]) | Plant response rating, Wheat (wheat [20]; [22])
70: Barnyardgrass plant response rating (barnyardgrass [1]) | Wheat plant response rating (wheat [10]) | Plant response rating, Ryegrass, Italian (ryegrass, Italian [18]; [22])
80: Plant response rating, Blackgrass (blackgrass [2]) | Ragweed plant response rating (ragweed [7]) | Plant response rating, Barnyardgrass (barnyardgrass [11]; [23]) | Plant response rating, Blackgrass (blackgrass [12]; [22]) | Plant response rating, Corn (corn [13]; [22]) | Plant response rating, Kochia (kochia [14]; [22]) | Plant response rating, Oat, Wild (oat, wild [15]; [22]) | Plant response rating, Ryegrass, Italian (ryegrass, Italian [18]; [23]) | Plant response rating, Wheat (wheat [20]; [23])
25: Plant response rating, Barnyardgrass (Flood) (barnyardgrass [21])
20: Plant response rating, Horseweed (horseweed; [23]) | Plant response rating, Rice (Flood) (rice)
40: Blackgrass plant response rating (blackgrass [2])
90: Plant response rating, Kochia (kochia [4]) | Kochia plant response rating (kochia [4]) | Plant response rating, Oat, Wild (oat, wild [5]) | Oat, Wild plant response rating (oat, wild [5]) | Plant response rating, Ragweed (ragweed [7]) | Plant response rating, Ryegrass, Italian (ryegrass, Italian [8]) | Ryegrass, Italian plant response rating (ryegrass, Italian [8]) | Plant response rating, Wheat (wheat [10]) | Plant response rating, Blackgrass (blackgrass [12]; [23]) | Plant response rating, Corn (corn [13]; [23]) | Plant response rating, Kochia (kochia [14]; [23]) | Plant response rating, Oat, Wild (oat, wild [15]; [23]) | Plant response rating, Pigweed, Palmer (pigweed, palmer [16]; [22]) | Plant response rating, Ragweed (ragweed [17]; [22])

From patent publication US20260262643A1, “HERBICIDAL BENZOXAZINES” (FMC CORPORATION, priority 2022, published 2026)
